Test results as given in EP4692094A1 (Beijing Konruns Pharmaceutical Co., Ltd., priority 2023, dated 2024).

The compounds below were run against T1, KAT5 (Homo sapiens, UniProt Q92993) (assay: Enzymatic activity assay for KAT5 acetyltransferase (TR-FRET, histone substrate H4)). Settings: KAT5 1.5 nM, H4 200 nM, AcCOA 2 µM.
T1 construct: purchased signalChem K314-380G
T1 sequence (Q92993 whole entry): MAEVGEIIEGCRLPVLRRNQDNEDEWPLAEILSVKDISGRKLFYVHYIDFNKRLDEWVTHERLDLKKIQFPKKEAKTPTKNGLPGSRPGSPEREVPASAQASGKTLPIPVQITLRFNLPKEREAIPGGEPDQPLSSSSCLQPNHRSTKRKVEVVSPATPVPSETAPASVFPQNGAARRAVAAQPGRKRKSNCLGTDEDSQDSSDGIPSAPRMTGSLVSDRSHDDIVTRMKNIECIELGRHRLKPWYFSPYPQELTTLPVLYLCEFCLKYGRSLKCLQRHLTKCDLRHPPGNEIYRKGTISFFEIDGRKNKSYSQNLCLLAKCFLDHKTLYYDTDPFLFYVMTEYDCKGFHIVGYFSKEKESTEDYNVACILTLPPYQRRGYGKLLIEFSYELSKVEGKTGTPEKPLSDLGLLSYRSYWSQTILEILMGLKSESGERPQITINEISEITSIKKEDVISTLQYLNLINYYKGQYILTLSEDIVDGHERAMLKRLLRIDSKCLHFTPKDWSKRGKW
Assay type: biochemical
Experimental: The acetylation effects of KAT6B on histone substrate H3, as well as KAT5, KAT7, and KAT8 on histone substrate H4, were determined using the TR-FRET (time-resolved fluorescence resonance energy transfer) method. The determination was performed according to experimental procedures similar to those in "Pharmacological Experiment I": 1.2 Preparation of compounds: The compounds prepared in the examples were each dissolved in dimethylsulfoxide to give solutions at a concentration of 10 mmol/L. • 1) The compounds in the examples were each diluted from 10 mmol/L stock solution to 0.2 mmol/L, i.e., 1 µL of the compound was added to 49 µL of DMSO, and 3-fold dilution was performed to give 10 concentrations. • 2) 50 nL of the test compounds were transferred to 384 reaction plates using Echo, two replicates for each compound, and the plates were centrifuged at a rotation speed of 1000 rpm for 1 min, the final concentration of dimethylsulfoxide (DMSO) being 0.5%. […]
For KAT8: • 3) 2.5 µL of the KAT8 enzyme solution at a final concentration of 10 nM was added to the 384 reaction plates in step 2), and the plates were centrifuged at 1000 rpm for 1 min and incubated at 25 °C for 10 min. • 4) 2.5 µL of […] at a final concentration of 300 nM and an AcCOA (acetyl-CoA) reaction solution at a final concentration of 2 µM were added to the 384 reaction plates in step 3), and the plates were centrifuged at a rotation speed of 1000 rpm for 1 min and incubated at 25 °C for 90 min. • 5) 5 µL of Eu-Ab& Ulight-SA detection solution was separately added to the 384 reaction plates in step 4) of the 4 groups described above, and the plates were centrifuged at 1000 rpm for 1 min and incubated at 25 °C for 60 min. • 6) The HTRF […] signals were read using a BMG high-throughput drug-screening multi-mode microplate reader.
The acetylation levels of the histones in the groups were analyzed by the GraphPad Prism 8 software. […]
`COc1cc2c(cc1S(=O)(=O)Nc1noc3cc(Cn4cccn4)nc(OC)c13)CCCC2` [Example 2, N-(6-((1H-Pyrazol-1-yl)methyl)-4-methoxyisoxazolo[4,5-c]pyridin-3-yl)-3-methoxy-5,6,7,8-tetrahydronaphthalene-2-sulfonamide] was tested, and the IC50 was 219 nM. `COc1ccc2ccoc2c1S(=O)(=O)Nc1noc2cc(Cn3cccn3)nc(OC)c12` [Example 10, N-(6-((1H-Pyrazol-1-yl)methyl)-4-methoxyisoxazolo[4,5-c]pyridin-3-yl)-6-methoxybenzofuran-7-sulfonamide] was tested, and the IC50 was 66.4 nM. For `COc1cc2c(cc1S(=O)(=O)Nc1noc3cc(Cn4cccn4)nc(OC)c13)OCC2` [Example 59, N-(6-((1H-Pyrazol-1-yl)methyl)-4-methoxyisoxazolo[4,5-c]pyridin-3-yl)-5-methoxy-2,3-dihydrobenzofuran-6-sulfonamide], the IC50 was 171 nM.
